Measured values reported in PubChem BioAssay (NCI).
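Briefly, cells in 96-well plates were exposed to five compound concentrations for 48 h, and endpoints were estimated by linear interpolation. At the TGI there is no net growth.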

How the values were obtained:
Assay in all cases: NCI-60 cell line screen, 48 h
786-0 renal = tested on: 786-0 renal
A549 NSCLC = tested on: A549 NSCLC
ACHN renal = tested on: ACHN renal
CAKI-1 renal = tested on: CAKI-1 renal
CCRF-CEM leukemia = tested on: CCRF-CEM leukemia
COLO 205 colon = tested on: COLO 205 colon
DLD-1 colon = tested on: DLD-1 colon
DMS 114 small cell lung = tested on: DMS 114 small cell lung
DMS 273 small cell lung = tested on: DMS 273 small cell lung
EKVX NSCLC = tested on: EKVX NSCLC
HCC-2998 colon = tested on: HCC-2998 colon
HCT-15 colon = tested on: HCT-15 colon
HL-60(TB) leukemia = tested on: HL-60(TB) leukemia
HOP-62 NSCLC = tested on: HOP-62 NSCLC
HOP-92 NSCLC = tested on: HOP-92 NSCLC
HT29 colon = tested on: HT29 colon
IGROV1 ovarian = tested on: IGROV1 ovarian
K-562 leukemia = tested on: K-562 leukemia
KM12 colon = tested on: KM12 colon
KM20L2 colon = tested on: KM20L2 colon
LOX IMVI melanoma = tested on: LOX IMVI melanoma
LXFL 529 NSCLC = tested on: LXFL 529 NSCLC
M14 melanoma = tested on: M14 melanoma
M19-MEL melanoma = tested on: M19-MEL melanoma
MALME-3M melanoma = tested on: MALME-3M melanoma
MOLT-4 leukemia = tested on: MOLT-4 leukemia
NCI-H23 lung = tested on: NCI-H23 lung
NCI-H460 lung = tested on: NCI-H460 lung
NCI-H522 lung = tested on: NCI-H522 lung
OVCAR-3 ovarian = tested on: OVCAR-3 ovarian
OVCAR-4 ovarian = tested on: OVCAR-4 ovarian
OVCAR-5 ovarian = tested on: OVCAR-5 ovarian
OVCAR-8 ovarian = tested on: OVCAR-8 ovarian
RPMI-8226 leukemia = tested on: RPMI-8226 leukemia
RXF 393 renal = tested on: RXF 393 renal
RXF-631 renal = tested on: RXF-631 renal
SF-268 CNS = tested on: SF-268 CNS
SF-295 CNS = tested on: SF-295 CNS
SK-MEL-2 melanoma = tested on: SK-MEL-2 melanoma
SK-MEL-28 melanoma = tested on: SK-MEL-28 melanoma
SK-MEL-5 melanoma = tested on: SK-MEL-5 melanoma
SK-OV-3 ovarian = tested on: SK-OV-3 ovarian
SN12C renal = tested on: SN12C renal
SNB-75 CNS = tested on: SNB-75 CNS
SNB-78 CNS = tested on: SNB-78 CNS
SW-620 colon = tested on: SW-620 colon
TK-10 renal = tested on: TK-10 renal
UACC-257 melanoma = tested on: UACC-257 melanoma
UACC-62 melanoma = tested on: UACC-62 melanoma
XF 498 CNS = tested on: XF 498 CNS
A498 renal = tested on: A498 renal
BT-549 breast = tested on: BT-549 breast
DU-145 prostate = tested on: DU-145 prostate
HCT-116 colon = tested on: HCT-116 colon
HS 578T breast = tested on: HS 578T breast
MCF7 breast = tested on: MCF7 breast
MDA-MB-231 breast = tested on: MDA-MB-231 breast
MDA-MB-435 = tested on: MDA-MB-435
MDA-N = tested on: MDA-N
NCI-H226 lung = tested on: NCI-H226 lung
NCI/ADR-RES ovarian = tested on: NCI/ADR-RES ovarian
PC-3 prostate = tested on: PC-3 prostate
SF-539 CNS = tested on: SF-539 CNS
SNB-19 CNS = tested on: SNB-19 CNS
SR leukemia = tested on: SR leukemia
T-47D breast = tested on: T-47D breast
U251 CNS = tested on: U251 CNS
UO-31 renal = tested on: UO-31 renal

CCOC(=O)C(C)c1c(C(=O)c2ccc(C)nc2)c2ccccc2n1C (stereo not drawn)
TGI (786-0 renal): > 100 µM | TGI (A549 NSCLC): > 100 µM | TGI (ACHN renal): > 100 µM | TGI (CAKI-1 renal): > 100 µM | TGI (CCRF-CEM leukemia): > 100 µM | TGI (COLO 205 colon): > 100 µM | TGI (DLD-1 colon): > 100 µM | TGI (DMS 114 small cell lung): > 100 µM | TGI (DMS 273 small cell lung): > 100 µM | TGI (EKVX NSCLC): > 100 µM | TGI (HCC-2998 colon): > 100 µM | TGI (HCT-15 colon): > 100 µM | TGI (HL-60(TB) leukemia): > 100 µM | TGI (HOP-62 NSCLC): > 100 µM | TGI (HOP-92 NSCLC): > 100 µM | TGI (HT29 colon): > 100 µM | TGI (IGROV1 ovarian): > 100 µM | TGI (K-562 leukemia): > 100 µM | TGI (KM12 colon): > 100 µM | TGI (KM20L2 colon): > 100 µM | TGI (LOX IMVI melanoma): > 100 µM | TGI (LXFL 529 NSCLC): > 100 µM | TGI (M14 melanoma): > 100 µM | TGI (M19-MEL melanoma): > 100 µM | TGI (MALME-3M melanoma): > 100 µM | TGI (MOLT-4 leukemia): > 100 µM | TGI (NCI-H23 lung): > 100 µM | TGI (NCI-H460 lung): > 100 µM | TGI (NCI-H522 lung): > 100 µM | TGI (OVCAR-3 ovarian): > 100 µM | TGI (OVCAR-4 ovarian): > 100 µM | TGI (OVCAR-5 ovarian): > 100 µM | TGI (OVCAR-8 ovarian): > 100 µM | TGI (RPMI-8226 leukemia): > 100 µM | TGI (RXF 393 renal): > 100 µM | TGI (RXF-631 renal): > 100 µM | TGI (SF-268 CNS): > 100 µM | TGI (SF-295 CNS): > 100 µM | TGI (SK-MEL-2 melanoma): > 100 µM | TGI (SK-MEL-28 melanoma): > 100 µM | TGI (SK-MEL-5 melanoma): > 100 µM | TGI (SK-OV-3 ovarian): > 100 µM | TGI (SN12C renal): > 100 µM | TGI (SNB-75 CNS): > 100 µM | TGI (SNB-78 CNS): > 100 µM | TGI (SW-620 colon): > 100 µM | TGI (TK-10 renal): > 100 µM | TGI (UACC-257 melanoma): > 100 µM | TGI (UACC-62 melanoma): > 100 µM | TGI (XF 498 CNS): > 100 µM

CN(C)CCNc1ccc2nnn3c4ccccc4c(=O)c1c23
TGI (786-0 renal): 16.5 µM | TGI (A498 renal): 8.96 µM | TGI (A549 NSCLC): 6.56 µM | TGI (ACHN renal): 7.01 µM | TGI (BT-549 breast): 32.3 µM | TGI (CAKI-1 renal): 18.5 µM | TGI (CCRF-CEM leukemia): 20.6 µM | TGI (COLO 205 colon): 5.9 µM | TGI (DLD-1 colon): 22.9 µM | TGI (DMS 114 small cell lung): 12.7 µM | TGI (DMS 273 small cell lung): 11.5 µM | TGI (DU-145 prostate): 9.68 µM | TGI (EKVX NSCLC): 13.4 µM | TGI (HCC-2998 colon): 13.1 µM | TGI (HCT-116 colon): 13.7 µM | TGI (HCT-15 colon): 13 µM | TGI (HL-60(TB) leukemia): 15.7 µM | TGI (HOP-62 NSCLC): 14.2 µM | TGI (HOP-92 NSCLC): 9.6 µM | TGI (HS 578T breast): 9.8 µM | TGI (HT29 colon): 11 µM | TGI (IGROV1 ovarian): 26.5 µM | TGI (K-562 leukemia): 18.9 µM | TGI (KM12 colon): 13.9 µM | TGI (KM20L2 colon): 11.6 µM | TGI (LOX IMVI melanoma): 3.72 µM | TGI (LXFL 529 NSCLC): 17.5 µM | TGI (M14 melanoma): 9.03 µM | TGI (M19-MEL melanoma): 9.42 µM | TGI (MALME-3M melanoma): 10.4 µM | TGI (MCF7 breast): 25.2 µM | TGI (MDA-MB-231 breast): 15.3 µM | TGI (MDA-MB-435): 13.8 µM | TGI (MDA-N): 12.4 µM | TGI (MOLT-4 leukemia): 21 µM | TGI (NCI-H226 lung): 5.28 µM | TGI (NCI-H23 lung): 11.6 µM | TGI (NCI-H460 lung): 7.16 µM | TGI (NCI-H522 lung): 8.31 µM | TGI (NCI/ADR-RES ovarian): 9.82 µM | TGI (OVCAR-3 ovarian): 12.8 µM | TGI (OVCAR-4 ovarian): 9.44 µM | TGI (OVCAR-5 ovarian): 11.4 µM | TGI (OVCAR-8 ovarian): 9.91 µM | TGI (PC-3 prostate): 7.79 µM | TGI (RPMI-8226 leukemia): 23.9 µM | TGI (RXF 393 renal): 16.6 µM | TGI (RXF-631 renal): 10.3 µM | TGI (SF-268 CNS): 18.8 µM | TGI (SF-295 CNS): 13.8 µM | TGI (SF-539 CNS): 15.6 µM | TGI (SK-MEL-2 melanoma): 13.9 µM | TGI (SK-MEL-28 melanoma): 15.1 µM | TGI (SK-MEL-5 melanoma): 5.35 µM | TGI (SK-OV-3 ovarian): 33.2 µM | TGI (SN12C renal): 19.9 µM | TGI (SNB-19 CNS): 34.8 µM | TGI (SNB-75 CNS): 10.4 µM | TGI (SNB-78 CNS): 30.5 µM | TGI (SR leukemia): > 32.8 µM | TGI (SW-620 colon): 11 µM | TGI (T-47D breast): 32.3 µM | TGI (TK-10 renal): 12.7 µM | TGI (U251 CNS): 7.63 µM | TGI (UACC-257 melanoma): 11.4 µM | TGI (UACC-62 melanoma): 11.6 µM | TGI (UO-31 renal): 8.6 µM | TGI (XF 498 CNS): 19.5 µM
